# Laboratory results from ChEMBL document CHEMBL5308504, “Tm Shift (DSF) assay results for EUbOPEN Chemogenomics Library” (2023).
# Where “and” joins values, the source holds several entries; their conditions need not be identical. Equal entries are not always repeated.
# Legend:
# [1] = molecular target: Fibroblast growth factor receptor 3 (Homo sapiens) (UniProt P22607); details: Compound concentration 20.0 uM, Protein concentration 2.0 uM, Result type QC Liability
# Description: Thermal Shift Assay. Domain: start/stop: P449-E759
# [2] = molecular target: T1, Peregrin (Homo sapiens) (UniProt P55201); details: Compound concentration 20.0 uM, Protein concentration 2.0 uM, Result type QC Liability
# T1 sequence (whole entry): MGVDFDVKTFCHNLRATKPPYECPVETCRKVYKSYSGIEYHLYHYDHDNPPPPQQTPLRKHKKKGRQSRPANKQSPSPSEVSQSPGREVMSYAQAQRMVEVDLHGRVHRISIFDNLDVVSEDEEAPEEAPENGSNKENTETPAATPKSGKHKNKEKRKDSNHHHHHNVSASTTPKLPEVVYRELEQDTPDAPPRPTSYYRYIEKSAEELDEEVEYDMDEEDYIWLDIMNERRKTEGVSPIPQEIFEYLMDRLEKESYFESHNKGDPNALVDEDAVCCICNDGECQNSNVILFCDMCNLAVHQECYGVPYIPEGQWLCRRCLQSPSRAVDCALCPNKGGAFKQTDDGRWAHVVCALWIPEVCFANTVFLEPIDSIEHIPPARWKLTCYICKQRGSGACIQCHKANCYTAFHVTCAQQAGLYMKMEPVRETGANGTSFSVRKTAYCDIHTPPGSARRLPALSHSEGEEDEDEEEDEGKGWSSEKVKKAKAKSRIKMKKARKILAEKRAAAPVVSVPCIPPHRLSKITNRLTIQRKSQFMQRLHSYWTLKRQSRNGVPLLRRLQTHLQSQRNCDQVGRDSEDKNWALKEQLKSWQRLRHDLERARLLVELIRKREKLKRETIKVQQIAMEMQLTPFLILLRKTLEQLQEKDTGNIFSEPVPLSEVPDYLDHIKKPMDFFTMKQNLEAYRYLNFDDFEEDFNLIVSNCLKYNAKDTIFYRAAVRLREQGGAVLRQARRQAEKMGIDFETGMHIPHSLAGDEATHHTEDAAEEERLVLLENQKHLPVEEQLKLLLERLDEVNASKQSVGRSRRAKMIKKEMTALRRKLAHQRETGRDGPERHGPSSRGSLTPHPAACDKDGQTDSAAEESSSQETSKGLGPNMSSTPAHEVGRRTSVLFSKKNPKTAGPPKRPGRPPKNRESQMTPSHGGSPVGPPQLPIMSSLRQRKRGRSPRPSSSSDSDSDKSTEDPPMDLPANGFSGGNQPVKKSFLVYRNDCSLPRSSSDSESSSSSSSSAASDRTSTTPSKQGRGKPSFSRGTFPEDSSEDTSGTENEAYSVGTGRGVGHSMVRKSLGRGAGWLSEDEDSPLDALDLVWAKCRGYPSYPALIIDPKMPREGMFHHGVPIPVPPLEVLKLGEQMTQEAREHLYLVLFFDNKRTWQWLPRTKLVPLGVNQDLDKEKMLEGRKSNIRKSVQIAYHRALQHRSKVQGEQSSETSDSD
# Sequence of Fibroblast growth factor receptor 3 (Homo sapiens) (P22607 23-806 limits assumed): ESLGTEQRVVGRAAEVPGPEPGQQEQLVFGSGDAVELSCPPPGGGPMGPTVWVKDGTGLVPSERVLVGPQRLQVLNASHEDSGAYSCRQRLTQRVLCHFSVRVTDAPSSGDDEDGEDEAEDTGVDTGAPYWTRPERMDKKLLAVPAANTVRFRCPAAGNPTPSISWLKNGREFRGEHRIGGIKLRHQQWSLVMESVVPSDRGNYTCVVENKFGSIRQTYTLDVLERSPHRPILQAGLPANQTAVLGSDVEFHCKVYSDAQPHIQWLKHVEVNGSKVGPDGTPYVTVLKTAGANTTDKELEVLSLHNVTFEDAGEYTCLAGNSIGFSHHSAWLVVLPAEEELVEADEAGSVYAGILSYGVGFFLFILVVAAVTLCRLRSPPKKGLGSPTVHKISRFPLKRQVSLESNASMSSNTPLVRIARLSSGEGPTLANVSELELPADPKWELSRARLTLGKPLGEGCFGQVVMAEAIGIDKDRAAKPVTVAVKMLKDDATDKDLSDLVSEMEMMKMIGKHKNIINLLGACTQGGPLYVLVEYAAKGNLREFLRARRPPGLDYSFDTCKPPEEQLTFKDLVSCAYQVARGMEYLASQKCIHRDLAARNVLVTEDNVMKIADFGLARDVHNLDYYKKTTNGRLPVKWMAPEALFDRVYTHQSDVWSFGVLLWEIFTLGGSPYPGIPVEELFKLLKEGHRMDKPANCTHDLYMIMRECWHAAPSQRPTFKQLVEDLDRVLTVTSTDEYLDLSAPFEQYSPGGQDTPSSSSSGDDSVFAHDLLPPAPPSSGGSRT
SMILES,ΔTm [1],ΔTm [2]
CN(C)CCC[C@@]1(c2ccc(F)cc2)OCc2cc(C#N)ccc21,0.45 °C,-3.08 °C
Cc1cn(CCN2CCN(c3ccccc3-c3cc(C#N)cc(C(=O)NCCCN4CCCC4)c3)CC2)c2ccccc12,-1.2 °C,0.42 °C
CC1(C)C[C@@H]1C(=O)N/C(=C\CCCCSC[C@H](N)C(=O)O)C(=O)O,0.5 °C,-2.3 °C
Fc1ccc(Cl)cc1-c1nc(Nc2ccncc2)c2nccnc2n1,0.54 °C,-0.76 °C
CN(C)C(=O)c1sc2nc(N3CCC(S(C)(=O)=O)CC3)cc(C(F)(F)F)c2c1N,0.65 °C and 1.05 °C,-2.57 °C and -1.49 °C
Cc1nc(Nc2cnn(C3CCNCC3)c2)nc2c1N(C)C(=O)c1cc3ccccc3cc1N2C,1.22 °C,-2.69 °C
CCCS(=O)(=O)Nc1ccc(F)c(Nc2ncnc3cnc(-n4cnc(C)c4)nc23)c1F,1.06 °C,0.01 °C
COc1cc(Oc2nc(-c3ccc(NC(=O)C4CCOC4)cc3)nn3c(C)nc(C)c23)cc(OC)c1OC (centres undefined),1.34 °C,-1.59 °C
Nc1ncnc2[nH]c(-c3ccccc3)nc12,1.78 °C,-0.39 °C
Clc1ccccc1C(c1ccccc1)(c1ccccc1)n1cccn1,0.25 °C,-3.65 °C
COc1cc(C(N)=O)ccc1Nc1ncc2c(n1)N(CCC(C)C)[C@H](C)C(=O)N2C,1.76 °C,1.82 °C
COc1ccc(C(=O)N[C@H](C)c2cccc(C(=O)Nc3nc4c(s3)CN(C)CC4)c2)cc1C,0.97 °C,-0.23 °C
O=C(Nc1ccccc1C(=O)O)c1cc(S(=O)(=O)c2ccccc2)ccc1Cl,0.83 °C,-3.6 °C
CCn1c(=O)c2c(C)c(C(=O)N3CCC(O)CC3)sc2n(CCC(F)(F)F)c1=O,0.45 °C,-1.95 °C
CC(=O)O[C@H]1C(=O)[C@@]2(C)[C@H]([C@H](OC(=O)c3ccccc3)[C@]3(O)C[C@H](OC(=O)[C@H](O)[C@@H](NC(=O)c4ccccc4)c4ccccc4)C(C)=C1C3(C)C)[C@]1(OC(C)=O)CO[C@@H]1C[C@@H]2O,0.44 °C,-2.68 °C
CN1CCC(F)(Cn2cnc(-c3ccc(F)cn3)c2-c2ccnc3[nH]ccc23)CC1,0.5 °C,-0.88 °C
Cc1ncc(C(=O)Nc2cc(C(C)(C)C)on2)cc1-n1cc(-c2cnn(C)c2C)nn1,2.95 °C,0.08 °C
CC(=O)Nc1ncc(CN2CCC[C@H](Cc3cc(C)nc(C)c3)C2)s1,1 °C,0.17 °C
Cc1[nH]nc(C(F)(F)F)c1Cc1sc2c(c1C(=O)N1C[C@](C)(O)CO1)c(=O)n(C)c(=O)n2C(C)C,0.52 °C,-1.85 °C
Nc1nccc(-c2c(-c3ccc(F)cc3)ncn2C2CCCCC2)n1,0.92 °C,-0.2 °C
C[C@@H]1C[C@H](C)CN(c2ncc(Cl)c(Nc3ccc4c(c3)cc(OC(C)(C)C(=O)O)c(=O)n4C)n2)C1,0.41 °C,-3.96 °C
COc1ncc(-c2cc(-c3ncc(CN4C[C@@H](C)O[C@@H](C)C4)o3)c3cn[nH]c3c2)cc1NS(C)(=O)=O,1.45 °C,-0.2 °C
CO[C@H](C)CN1CC[C@]2(C)c3cccc(O)c3C[C@H]1C2(C)C,0.41 °C,-1.37 °C
CC(C)c1cnn2c(NCc3ccccc3)cc(NCCCCCCN)nc12,0.86 °C,-0.13 °C
CCN(CC)C(=O)C1CN2CCc3cc(OC)c(OC)cc3C2CC1OC(C)=O (centres undefined),0.43 °C,-2.07 °C
CCOc1cc(CC(=O)N[C@@H](CC(C)C)c2ccccc2N2CCCCC2)ccc1C(=O)O,0.18 °C,-3.67 °C

SMILES,ΔTm [1],ΔTm [2]
C[C@H](CCOc1cccc(CC(=O)O)c1)N(Cc1cccc(C(F)(F)F)c1Cl)CC(c1ccccc1)c1ccccc1,2.11 °C,-4.82 °C
CC(C)N1CCN(Cc2cnc(-c3cc(-c4cccc5[nH]ccc45)cc4[nH]ncc34)o2)CC1,1.84 °C,0.22 °C
CN(C(=O)c1ccccc1)c1ccc2c(c1)[nH]/c(=N\C(=O)c1ccc(Br)s1)n2CCC(N)=O,4.52 °C,-2.4 °C
CC#CCC(C)[C@H](O)/C=C/[C@@H]1[C@H]2C/C(=C/CCCC(=O)O)C[C@H]2C[C@H]1O (some centres undefined),0.4 °C,-2.03 °C
N#Cc1ccc(C#CC[C@@H](C#N)NC(=O)[C@H]2CCCCN2)cc1F,0.88 °C,-2.24 °C
CC(=O)c1c(C)c2cnc(Nc3ccn(C)n3)nc2n(C2CCCC2)c1=O,-0.69 °C,-0.34 °C
CC1(C)Cc2nc(C3CCCC3)c([C@@H](F)c3ccc(C(F)(F)F)cc3)c(C3CCCCC3)c2[C@@H](O)C1,1.5 °C,-1.29 °C
N[C@@H]1CCCC[C@H]1Oc1ccc2ncc(-c3cc4ccccc4o3)n2n1,0.36 °C,-2.67 °C
CC(=O)N(CCN(C)C)c1ccc(N/C(=C2\C(=O)Nc3cc(Cl)ccc32)c2ccccc2)cn1,7.35 °C,-1.84 °C
CC(C)(C)c1cc(NC(=O)c2csc(Nc3ccccn3)n2)no1,0.72 °C,-2.33 °C
CC(C)(c1ccc(OCc2cccc(COc3ccc(C(=N)N)cc3)c2)cc1)c1ccc(O[C@@H]2O[C@H](C(=O)O)[C@@H](O)[C@H](O)[C@H]2O)cc1,-5.02 °C,-6.79 °C
CCC(=O)N[C@H]1CC[C@@H](C(=O)N(C)c2ccc(-c3nc4ccccc4o3)cc2)C1,0.8 °C,-2.71 °C
CN1CC(=O)N(C)c2cnc(Nc3ccc(NC(=O)Nc4cccc(C(=O)O)c4)cc3)nc21,1.19 °C,-0.81 °C
O=C(O)[C@]1(Cc2cccc(Nc3nccs3)n2)CC[C@@H](Oc2cccc(Cl)c2F)CC1,6.09 °C,-3.28 °C
CC(C)(C)C(=O)NCc1ccc(Cl)c(C(=O)Nc2ncc[nH]2)c1,0.47 °C,-2.86 °C
Fc1cccc(-n2cnc3c(NCc4nc5c(F)c(F)ccc5[nH]4)nc(N4CCOCC4)nc32)c1,-0.16 °C,-0.08 °C
O=C(O)c1ccc2c(c1)nc(NCc1ccccc1)c1ncncc12,0.75 °C,-1.74 °C
C=C[C@@]12CCc3cc(O)ccc3[C@H]1CC[C@@]1(C)[C@H]2CC[C@@H]1O,0.31 °C,-6.72 °C
Cc1nnc2n1-c1sc3c(c1C(c1ccccc1Cl)=NC2)CC(C(=O)N1CCOCC1)C3 (centres undefined),0.52 °C,-1.83 °C
Clc1cccc(Nc2nccc(NCCCN3CCOCC3)n2)c1,1.15 °C,-1.42 °C
Cc1nc2cccnc2n2c(-c3cc([C@@]4(O)CCCOC4)ccc3Cl)nnc12,0.59 °C,-2.38 °C
CCn1c(-c2nonc2N)nc2cncc(C(=O)N3CC[C@H](N)C3)c21,0.35 °C,-1.78 °C
CNC(=O)c1c[nH]c2ccc(Nc3nccc(-c4ccccn4)n3)cc12,0.22 °C,-0.15 °C
Cc1c(NC(=O)c2ccc(C(C)(C)C)cc2)cccc1-c1cn(C)c(=O)c(Nc2ccc(C(=O)N3CCOCC3)cc2)n1,0.54 °C,-4.33 °C
COc1cc(F)ccc1-c1cc(Nc2cc(CS(C)(=N)=O)ccn2)ncc1F (centres undefined),3.5 °C,-1.49 °C
COc1cc(-c2cc3ncccc3c(O[C@@H](C)[C@H]3CNC(=O)C3)n2)cc(OC)c1OC,0.6 °C,-2.76 °C
